Measurements reported in US11472811B2, “Pyrazolotriazolopyrimidine derivatives as A2A receptor antagonist” (BEIGENE, LTD., priority 2018, dated 2022).

Test system: not listed separately
Assay: Mouse BBB assay
Type: in vivo
Settings: oral 10 mg/kg, BLOQ: below limit of quantitation, Brain is 5 ng/g, read-out: Brain
Description: Mice were acclimated for 1 week prior to use at 18-30 g body weight. Fasted mice were dosed orally at 10 mg/kg dose. At 1, 2 and 4 hours postdose, plasma samples from cardiac blood collected in tubes containing K2EDTA as the anticoagulant, and excised cerebral hemispheres were immediately frozen and stored at −80° C. until bioanalysis. Total concentrations of the compound were determined by LC-MS/MS. Brain homogenate concentrations were converted to brain concentrations for the calculations of brain-to-plasma ratios.

With `COCCOc1ccc(N2CCN(CCn3ncc4c3nc(N)n3nc(-c5ccco5)nc43)CC2)cc1` [Preladenant, reference compound] as the compound, how does the concentration at 1 h read?
Its concentration at 1 h is 258 ng/g.

Same assay, conditions: oral 10 mg/kg, limit of quantitation plasma 1 ng/ml, read-out: Plasma

Which concentration at 1 h does the source give for `COCCOc1ccc(N2CCN(CCn3ncc4c3nc(N)n3nc(-c5ccco5)nc43)CC2)cc1` [Preladenant, reference compound] here?
The concentration at 1 h was 197 ng/mL.

Molecular target: human adenosine A2A receptor (A2AR) (Homo sapiens (Human), UniProt P29274)
Sequence (P29274 whole entry): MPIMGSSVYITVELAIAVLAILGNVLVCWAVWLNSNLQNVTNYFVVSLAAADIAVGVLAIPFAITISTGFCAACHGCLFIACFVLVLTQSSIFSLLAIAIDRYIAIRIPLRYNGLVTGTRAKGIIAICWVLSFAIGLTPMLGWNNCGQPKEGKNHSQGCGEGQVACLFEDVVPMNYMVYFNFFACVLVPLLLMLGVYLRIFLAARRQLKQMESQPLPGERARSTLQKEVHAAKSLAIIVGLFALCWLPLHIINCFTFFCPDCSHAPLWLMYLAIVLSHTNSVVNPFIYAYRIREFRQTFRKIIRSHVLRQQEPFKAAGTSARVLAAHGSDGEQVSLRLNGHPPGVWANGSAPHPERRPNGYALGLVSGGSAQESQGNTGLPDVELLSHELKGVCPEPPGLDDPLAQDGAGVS
Assay: Adenosine receptor binding assay, A2A (radioligand competitive binding)
Settings: membrane homogenates from HEK293 cells transfected with A2AR, 6 nM [3H]CGS21680
Description: (§1) Binding affinity of test compounds to four human adenosine receptors, A1, A2A, A2B and A3 was determined in radioligand competitive binding assay (conducted by Cerep, France) using following protocols. For A1 receptor (A1R), membrane homogenates from CHO cells transfected with A1R were incubated for 60 min at 22° C. with 1 nM [3H]DPCPX in the absence or presence of the test compound in a buffer containing 50 mM Tris-HCl (pH 7.4), 5 mM MgCl2, 1 mM EDTA/Tris and 2 UI/mL ADA. For A2AR, membrane homogenates from HEK293 cells transfected with A2AR were incubated for 120 min at 22° C. with 6 nM [3H]CGS21680 in the absence or presence of the test compound in a buffer containing 50 mM Tris-HCl (pH 7.4), 10 mM MgCl2, and 2 UI/mL ADA. For A2B receptor (A2BR), membrane homogenates from HEK293 cells transfected with A2BR were incubated for 60 min at 22° C. with 5 nM [3H]CPX in the absence or presence of the test compound in a buffer containing 10 mM Hepes/Tris (pH 7), 1 mM MgCl2, and 1 mM EDTA. For A3 receptor (A3R), membrane homogenates from HEK293 cells transfected with A3R were incubated for 120 min at 22° C. with 0.15 nM [125I] AB-MECA in the absence or presence of the test compound in a buffer containing 50 mM Tris-HCl (pH 7.4), 5 mM MgCl2, 1 mM EDTA and 2 UI/mL ADA. Nonspecific binding was determined in the presence of unlabeled 1 μM DPCPX, 10 μM NECA, 100 μM NECA, and 1 μM IB-MECA in A1R, A2AR, A2BR, A3R binding assays, respectively. Following incubation, the samples are rapidly filtered and washed with ice-cold 50 mM Tris-HCl. Then filters are dried and counted for radioactivity in a scintillation counter (Topcount, Packard) using a scintillation cocktail (Microscint 0, Packard). Duplicate experiments were performed for each assay. The results are expressed as a percent inhibition of control radioligand specific binding.

For `Nc1nc2c(cnn2[C@H](C(=O)NCC2(O)COC2)c2ccccc2)c2nc(-c3ccco3)nn12` [Example 82B], which Ki is on record?
The Ki was 1.7 nM.

Molecular target: human adenosine A1 receptor (A1R) (Homo sapiens (Human), UniProt P30542)
Sequence (P30542 whole entry): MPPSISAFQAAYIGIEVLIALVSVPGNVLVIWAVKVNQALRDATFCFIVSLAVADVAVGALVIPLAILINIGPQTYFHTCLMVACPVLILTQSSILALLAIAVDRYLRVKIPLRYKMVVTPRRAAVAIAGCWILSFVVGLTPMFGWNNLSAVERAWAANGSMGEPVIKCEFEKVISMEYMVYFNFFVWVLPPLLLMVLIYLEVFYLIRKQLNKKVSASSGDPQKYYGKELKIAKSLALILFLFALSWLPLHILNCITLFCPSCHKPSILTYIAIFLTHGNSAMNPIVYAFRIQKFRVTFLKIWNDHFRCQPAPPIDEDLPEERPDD
Assay: Adenosine receptor binding assay, A1 (radioligand competitive binding)
Settings: membrane homogenates from CHO cells transfected with A1R, 1 nM [3H]DPCPX
Description: as §1

For `Nc1nc2c(cnn2[C@H](C(=O)NCC2(O)COC2)c2ccccc2)c2nc(-c3ccco3)nn12` [Example 82B], which Ki is on record?
The Ki was 7.2 nM.

Molecular target: human A2A receptor (A2AR) (Homo sapiens (Human), UniProt P29274)
Sequence (P29274 whole entry): as the sequence (P29274 whole entry) above
Assay: Luciferase reporter assay (HEK293-A2AR-luc2p/CRE/Hygro cells)
Type: cell-based
Settings: 3 nM CGS21680, 5 h incubation
Procedure, shortened: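 Antagonism was scored as inhibition of CRE-luciferase signal driven by 3 nM CGS21680 (=100%) during a 5 h treatment with compound at 0.1–10000 nM. The line was HEK293 stably carrying human A2AR and luc2P/CRE, preincubated 18 h in 1% FBS containing 1 U/mL ADA. IC50 came from the dose-response curve.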

Which IC50 does the source give for `COc1cccnc1CNC(=O)[C@@](C)(c1ccccc1)n1ncc2c1nc(N)n1nc(-c3ccco3)nc21` [Example 115B, (R)-2-(5-amino-2-(furan-2-yl)-7H-pyrazolo[4,3-e][1,2,4]triazolo[1,5-c]pyrimidin-7-yl)-N-((3-methoxypyridin-2-yl)methyl)-2-phenylpropanamide] here?
Its IC50 is 3.3 nM.

Which IC50 does the source give for `Nc1nc2c(cnn2[C@H](C(=O)NCC2(O)COC2)c2ccccc2)c2nc(-c3ccco3)nn12` [Example 82B] here?
The IC50 was 3.8 nM.

Which IC50 does the source give for `Cc1cccc(CCNC(=O)[C@@](C)(c2ccccc2)n2ncc3c2nc(N)n2nc(-c4ccco4)nc32)n1` [Example 150B, (R)-2-(5-amino-2-(furan-2-yl)-7H-pyrazolo[4,3-e][1,2,4]triazolo[1,5-c]pyrimidin-7-yl)-N-(2-(6-methylpyridin-2-yl)ethyl)-2-phenylpropanamide] here?
The IC50 was 26.5 nM.

With `COCCOc1ccc(N2CCC(NC(=O)C(C)(c3ccccc3)n3ncc4c3nc(N)n3nc(-c5ccco5)nc43)CC2)cc1` (stereo not shown) [Example 46, 2-(5-amino-2-(furan-2-yl)-7H-pyrazolo[4,3-e][1,2,4]triazolo[1,5-c]pyrimidin-7-yl)-N-(1-(4-(2-methoxyethoxy)phenyl)piperidin-4-yl)-2-phenylpropanamide] as the compound, how does the IC50 read?
Its IC50 is 10.9 nM.

Which IC50 does the source give for `Cc1ccc(CNC(=O)C(c2ccccc2)n2ncc3c2nc(N)n2nc(-c4ccco4)nc32)cc1` (stereo not shown) [Example 25, 2-(5-amino-2-(furan-2-yl)-7H-pyrazolo[4,3-e][1,2,4]triazolo[1,5-c]pyrimidin-7-yl)-N-(4-methylbenzyl)-2-phenylacetamide] here?
Its IC50 is 1.5 nM.

For `Nc1nc2c(cnn2C(C(=O)NCc2ccc(OC(F)(F)F)cc2)c2ccccc2)c2nc(-c3ccco3)nn12` (stereo not shown) [Example 24, 2-(5-amino-2-(furan-2-yl)-7H-pyrazolo[4,3-e][1,2,4]triazolo[1,5-c]pyrimidin-7-yl)-2-phenyl-N-(4-(trifluoromethoxy)benzyl)acetamide], which IC50 is on record?
The IC50 was 5.6 nM.

For `CC(C(=O)NC[C@@H]1CCOC1)(c1ccccc1)n1ncc2c1nc(N)n1nc(-c3ccco3)nc21` (stereo partly drawn) [Example 53, 2-(5-amino-2-(furan-2-yl)-7H-pyrazolo[4,3-e][1,2,4]triazolo[1,5-c]pyrimidin-7-yl)-2-phenyl-N—(((S)-tetrahydrofuran-3-yl)methyl)propanamide], which IC50 is on record?
Its IC50 is 12.5 nM.

For `Cc1cccnc1CNC(=O)C(C)(c1ccccc1)n1ncc2c1nc(N)n1nc(-c3ccco3)nc21` (stereo not shown) [Example 111, 2-(5-amino-2-(furan-2-yl)-7H-pyrazolo[4,3-e][1,2,4]triazolo[1,5-c]pyrimidin-7-yl)-N-((3-methylpyridin-2-yl)methyl)-2-phenylpropanamide], which IC50 is on record?
Its IC50 is 0.6 nM.

With `CC(C(=O)N[C@H]1C[C@@H](O)C1)(c1ccccc1)n1ncc2c1nc(N)n1nc(-c3ccco3)nc21` (stereo partly shown) [Example 104, 2-(5-amino-2-(furan-2-yl)-7H-pyrazolo[4,3-e][1,2,4]triazolo[1,5-c]pyrimidin-7-yl)-N-((1s,3s)-3-hydroxycyclobutyl)-2-phenylpropanamide] as the compound, how does the IC50 read?
The IC50 was 18.2 nM.

Which IC50 does the source give for `Cc1ccnc(CNC(=O)C(C)(c2ccccc2)n2ncc3c2nc(N)n2nc(-c4ccco4)nc32)c1` (stereo not shown) [Example 110, 2-(5-amino-2-(furan-2-yl)-7H-pyrazolo[4,3-e][1,2,4]triazolo[1,5-c]pyrimidin-7-yl)-N-((4-methylpyridin-2-yl)methyl)-2-phenylpropanamide] here?
The IC50 was 2.4 nM.

With `CC(Cc1ccccc1)(C(=O)NCC1(O)COC1)n1ncc2c1nc(N)n1nc(-c3ccco3)nc21` (stereo not shown) [Example 132, 2-(5-amino-2-(furan-2-yl)-7H-pyrazolo[4,3-e][1,2,4]triazolo[1,5-c]pyrimidin-7-yl)-N-((3-hydroxyoxetan-3-yl)methyl)-2-methyl-3-phenylpropanamide] as the compound, how does the IC50 read?
The IC50 was 15.7 nM.

Which IC50 does the source give for `CC(C(=O)N[C@H]1COC[C@@H]1O)(c1ccccc1)n1ncc2c1nc(N)n1nc(-c3ccco3)nc21` (stereo partly drawn) [Example 106, 2-(5-amino-2-(furan-2-yl)-7H-pyrazolo[4,3-e][1,2,4]triazolo[1,5-c]pyrimidin-7-yl)-N-((3S,4R)-4-hydroxytetrahydrofuran-3-yl)-2-phenylpropanamide] here?
Its IC50 is 50.9 nM.

Which IC50 does the source give for `CC(C(=O)NC1CCCC(O)C1)(c1ccccc1)n1ncc2c1nc(N)n1nc(-c3ccco3)nc21` (stereo not shown) [Example 99, 2-(5-amino-2-(furan-2-yl)-7H-pyrazolo[4,3-e][1,2,4]triazolo[1,5-c]pyrimidin-7-yl)-N-(3-hydroxycyclohexyl)-2-phenylpropanamide] here?
The IC50 was 12 nM.

For `Nc1nc2c(cnn2C(C(=O)N[C@H]2CC[C@@H](O)CC2)c2ccccc2)c2nc(-c3ccco3)nn12` (mixture of isomers) [Example 92, 2-(5-amino-2-(furan-2-yl)-7H-pyrazolo[4,3-e][1,2,4]triazolo[1,5-c]pyrimidin-7-yl)-(cis)-N-(4-hydroxycyclohexyl)-2-phenylacetamide], which IC50 is on record?
The IC50 was 12.4 nM.

With `Cc1nccnc1-c1nc2c3cnn(C(C)(C(=O)NCC4(O)COC4)c4ccccc4)c3nc(N)n2n1` (stereo not shown) [Example 78, 2-(5-amino-2-(3-methylpyrazin-2-yl)-7H-pyrazolo[4,3-e][1,2,4]triazolo[1,5-c]pyrimidin-7-yl)-N-((3-hydroxyoxetan-3-yl)methyl)-2-phenylpropanamide] as the compound, how does the IC50 read?
Its IC50 is 83.3 nM.

With `C[C@@](C(=O)N[C@@H]1CCC[C@@H]1O)(c1ccccc1)n1ncc2c1nc(N)n1nc(-c3ccco3)nc21` [Example 48A, (S)-2-(5-amino-2-(furan-2-yl)-7H-pyrazolo[4,3-e][1,2,4]triazolo[1,5-c]pyrimidin-7-yl)-N-((1R,2S)-2-hydroxycyclopentyl)-2-phenylpropanamide] as the compound, how does the IC50 read?
Its IC50 is 12.6 nM.

With `Nc1nc2c(cnn2C(C(=O)NC2COc3ccccc32)c2ccccc2)c2nc(-c3ccco3)nn12` (stereo not shown) [Example 20, 2-(5-amino-2-(furan-2-yl)-7H-pyrazolo[4,3-e][1,2,4]triazolo[1,5-c]pyrimidin-7-yl)-N-(2,3-dihydrobenzofuran-3-yl)-2-phenylacetamide] as the compound, how does the IC50 read?
Its IC50 is 14.6 nM.

Which IC50 does the source give for `CC(C(=O)NCC1COC1)(c1ccccc1)n1ncc2c1nc(N)n1nc(-c3ccco3)nc21` (stereo not shown) [Example 79, 2-(5-amino-2-(furan-2-yl)-7H-pyrazolo[4,3-e][1,2,4]triazolo[1,5-c]pyrimidin-7-yl)-N-(oxetan-3-ylmethyl)-2-phenylpropanamide] here?
The IC50 was 31 nM.

Which IC50 does the source give for `CC(C(=O)NC1(CO)CC1)(c1ccccc1)n1ncc2c1nc(N)n1nc(-c3ccco3)nc21` (stereo not shown) [Example 37, 2-(5-amino-2-(furan-2-yl)-7H-pyrazolo[4,3-e][1,2,4]triazolo[1,5-c]pyrimidin-7-yl)-N-(1-(hydroxymethyl)cyclopropyl)-2-phenylpropanamide] here?
Its IC50 is 500 nM.

For `CN1CCN(CCNC(=O)C(C)(c2ccccc2)n2ncc3c2nc(N)n2nc(-c4ccco4)nc32)CC1` (stereo not shown) [Example 147, 2-(5-amino-2-(furan-2-yl)-7H-pyrazolo[4,3-e][1,2,4]triazolo[1,5-c]pyrimidin-7-yl)-N-(2-(4-methylpiperazin-1-yl)ethyl)-2-phenylpropanamide], which IC50 is on record?
The IC50 was 24.7 nM.

For `CC(C(=O)N[C@H]1C[C@H](O)C1)(c1ccccc1)n1ncc2c1nc(N)n1nc(-c3ccco3)nc21` (relative stereo) [Example 102, 2-(5-amino-2-(furan-2-yl)-7H-pyrazolo[4,3-e][1,2,4]triazolo[1,5-c]pyrimidin-7-yl)-(trans)-N-(3-hydroxycyclobutyl)-2-phenylpropanamide], which IC50 is on record?
Its IC50 is 13.3 nM.
